According to patent US20230126893A1, “[(1,4,5-TRISUBSTITUTED-1H-PYRAZOL-3-YL)SULFANYL]ACETIC ACID DERIVATIVES, SALTS THEREOF, AND USE THEREOF AS ACTIVE HERBICIDAL INGREDIENTS” (BAYER AKTIENGESELLSCHAFT, priority 2020, published 2023):

How the values were obtained:
Format in all cases: in vivo
[1] = tested on: Amaranthus retroflexus; assay: Pre-emergence herbicidal effect against AMARE; details: 1280 g/ha, visual score after 3 weeks, 100% = plants have died, 0% = like control plants
Text: (§1) 1. Pre-emergence herbicidal effect and crop plant compatibility Seeds of monocotyledonous and dicotyledonous weed plants and crop plants are laid out in sandy loam soil in wood-fibre pots and covered with soil. The compounds of the invention, formulated in the form of wettable powders (WP) or as emulsion concentrates (EC), are then applied to the surface of the covering soil as aqueous suspension or emulsion at a water application rate equating to 600 to 800 L/ha with addition of 0.2% wetting agent. After the treatment, the pots are placed in a greenhouse and kept under good growth conditions for the trial plants. The damage to the test plants is scored visually after a test period of 3 weeks by comparison with untreated controls (herbicidal activity in percent (%): 100% activity=the plants have died, 0% activity=like control plants). [table]

[2] = tested on: Veronica persica; assay: Post-emergence herbicidal effect against VERPE; details: 1280 g/ha, visual assessment about 3 weeks after treatment, 100% = plants have died, 0% = like control plants
Method: (§2) [table] 2. Post-emergence herbicidal effect and crop plant compatibility Seeds of monocotyledonous and dicotyledonous weed and crop plants are laid out in sandy loam soil in wood-fibre pots, covered with soil and cultivated in a greenhouse under good growth conditions. 2 to 3 weeks after sowing, the test plants are treated at the one-leaf stage. The compounds of the invention, formulated in the form of wettable powders (WP) or as emulsion concentrates (EC), are then sprayed onto the green parts of the plants as aqueous suspension or emulsion at a water application rate equating to 600 to 800 l/ha with addition of 0.2% wetting agent. After the test plants have been left to stand in the greenhouse under optimal growth conditions for about 3 weeks, the action of the preparations is assessed visually in comparison to untreated controls (herbicidal action in percent (%): 100% activity=the plants have died, 0% activity=like control plants).

[3] = tested on: Amaranthus retroflexus; assay: Post-emergence herbicidal effect against AMARE; details: 1280 g/ha, visual assessment about 3 weeks after treatment, 100% = plants have died, 0% = like control plants
Method: as §2

[4] = tested on: Tripleurospermum inodorum; assay: Pre-emergence herbicidal effect against MATIN; details: 1280 g/ha, visual score after 3 weeks, 100% = plants have died, 0% = like control plants
Text: as §1

[5] = tested on: Digitaria sanguinalis; assay: Pre-emergence herbicidal effect against DIGSA; details: 1280 g/ha, visual score after 3 weeks, 100% = plants have died, 0% = like control plants
Text: as §1

[6] = tested on: Poa annua; assay: Pre-emergence herbicidal effect against POAAN; details: 1280 g/ha, visual score after 3 weeks, 100% = plants have died, 0% = like control plants
Text: as §1

[7] = tested on: Poa annua; assay: Post-emergence herbicidal effect against POAAN; details: 1280 g/ha, visual assessment about 3 weeks after treatment, 100% = plants have died, 0% = like control plants
Method: as §2

[8] = tested on: Alopecurus myosuroides; assay: Pre-emergence herbicidal effect against ALOMY; details: 1280 g/ha, visual score after 3 weeks, 100% = plants have died, 0% = like control plants
Text: as §1

[9] = tested on: Lolium rigidum; assay: Pre-emergence herbicidal effect against LOLRI; details: 1280 g/ha, visual score after 3 weeks, 100% = plants have died, 0% = like control plants
Text: as §1

[10] = tested on: Digitaria sanguinalis; assay: Post-emergence herbicidal effect against DIGSA; details: 1280 g/ha, visual score after about 3 weeks, 100% = plants have died, 0% = like control plants
Method: as §2

[11] = tested on: Abutylon threophrasti; assay: Post-emergence herbicidal effect against ABUTH; details: 1280 g/ha, visual assessment about 3 weeks after treatment, 100% = plants have died, 0% = like control plants
Method: as §2

[12] = tested on: Veronica persica; assay: Pre-emergence herbicidal effect against VERPE; details: 1280 g/ha, visual score after 3 weeks, 100% = plants have died, 0% = like control plants
Text: as §1

[13] = tested on: Tripleurospermum inodorum; assay: Post-emergence herbicidal effect against MATIN; details: 1280 g/ha, visual assessment about 3 weeks after treatment, 100% = plants have died, 0% = like control plants
Method: as §2

[14] = tested on: Stellaria media; assay: Pre-emergence herbicidal effect against STEME; details: 1280 g/ha, visual score after 3 weeks, 100% = plants have died, 0% = like control plants
Text: as §1

[15] = tested on: Alopecurus myosuroides; assay: Post-emergence herbicidal effect against ALOMY; details: 1280 g/ha, visual score after about 3 weeks, 100% = plants have died, 0% = like control plants
Method: as §2

[16] = tested on: Echinochloa crus-galli; assay: Post-emergence herbicidal effect against ECHCG; details: 1280 g/ha, visual score after about 3 weeks, 100% = plants have died, 0% = like control plants
Method: as §2

[17] = tested on: Setaria viridis; assay: Pre-emergence herbicidal effect against SETVI; details: 1280 g/ha, visual score after 3 weeks, 100% = plants have died, 0% = like control plants
Text: as §1

[18] = tested on: Bassia scoparia; assay: Post-emergence herbicidal effect against KCHSC; details: 1280 g/ha, visual assessment about 3 weeks after treatment, 100% = plants have died, 0% = like control plants
Method: as §2

[19] = tested on: Stellaria media; assay: Post-emergence herbicidal effect against STEME; details: 1280 g/ha, visual assessment about 3 weeks after treatment, 100% = plants have died, 0% = like control plants
Method: as §2

[20] = tested on: Echinochloa crus-galli; assay: Pre-emergence herbicidal effect against ECHCG; details: 1280 g/ha, visual score after 3 weeks, 100% = plants have died, 0% = like control plants
Text: as §1

[21] = tested on: Setaria viridis; assay: Post-emergence herbicidal effect against SETVI; details: 1280 g/ha, visual assessment about 3 weeks after treatment, 100% = plants have died, 0% = like control plants
Method: as §2

SMILES	Pre-emergence action against AMARE [1]	Post-emergence action against VERPE [2]	Post-emergence action against AMARE [3]	Pre-emergence action against MATIN [4]	Pre-emergence action against DIGSA [5]	Pre-emergence action against POAAN [6]	Post-emergence action against POAAN [7]	Pre-emergence action against ALOMY [8]	Pre-emergence action against LOLRI [9]	Post-emergence action against DIGSA [10]	Post-emergence action against ABUTH [11]	Pre-emergence action against VERPE [12]	Post-emergence action against MATIN [13]	Pre-emergence action against STEME [14]	Post-emergence action against ALOMY [15]	Post-emergence action against ECHCG [16]	Pre-emergence action against SETVI [17]	Post-emergence action against KCHSC [18]	Post-emergence action against STEME [19]	Pre-emergence action against ECHCG [20]	other results
CCOC(=O)CSc1nn(-c2ccccc2F)c(-c2sncc2C)c1Br [Example V-001]	100%	90%	100%	90%	90%	90%	–	–	–	–	–	–	–	–	–	–	–	–	–	–	–
CC(Sc1nn(-c2ccccc2F)c(-c2ccc(F)c(F)c2)c1Br)C(=O)O (stereo not drawn) [Example I-022]	90%	100%	–	90%	100%	90%	100%	90%	100%	90%	90%	100%	100%	100%	100%	100%	100%	90%	90%	90%	–
CCOC(=O)CSc1nn(-c2ccccc2F)c(-c2ccc(F)c(F)c2)c1Br [Example I-002, Ethyl {[4-bromo-5-(3,4-difluorophenyl)-1-(2-fluorophenyl)-1H-pyrazol-3-yl]sulfanyl}acetate]	100%	90%	90%	100%	90%	100%	–	90%	100%	100%	90%	100%	100%	100%	100%	–	100%	–	100%	–	Post-emergence action against SETVI [21]: 100%
CCOC(=O)C[S+]([O-])c1nn(-c2cccc(F)c2F)c(-c2ccccc2)c1Br (stereo not drawn) [Example I-010]	100%	90%	90%	100%	100%	100%	100%	100%	100%	90%	90%	100%	100%	100%	100%	100%	100%	90%	90%	100%	–
CCOC(=O)CSc1nn(-c2ccccc2F)c(-c2cnccn2)c1Br [VI-001]	–	90%	90%	90%	90%	100%	100%	–	–	–	90%	–	100%	90%	90%	–	–	–	–	–	–
